Results from publication PMC10794144, “A novel antibiotic class targeting the lipopolysaccharide transporter” (Nature, 2024).
In brackets after ≈: the same amount, converted by molar mass. Read-outs that look alike come from different tables or passages of the source.

Legend:
S. aureus ATCC 29213 = test: microbe, parasite or virus in culture
Method: (§1) MIC determinations were performed using the broth microdilution method and in line with CLSI guidelines M07 and M100 (refs. [37],[38]). Bacterial inocula were prepared by diluting a 0.5 McFarland suspension in CAMHB or lysogeny broth (LB) specifically for A. baylyi isolates. […] MIC values of all of the tested antibiotics were read as the lowest compound concentration inhibiting bacterial growth by naked eye or beyond which the OD600 ceased to decrease.

A. baumannii = test: microbe, parasite or virus in culture
Method: as §1

CN1C(=O)[C@H](CCCCN)NC(=O)[C@H](CCCN)NCc2cccnc2Sc2c(Cl)ccc(Cl)c2CNC(=O)[C@@H]1Cc1c[nH]c2ccccc12 [RO7075573]
MIC (S. aureus ATCC 29213; Staphylococcus aureus, ATCC29213): > 64 µg/mL | MIC 100% (S. aureus ATCC 29213; Study LGC281440): >64 µg/mL | MIC 100% (S. aureus ATCC 29213; Study LGC282160): >64 µg/mL | MIC 100% (S. aureus ATCC 29213; Study LGC284879): >64 µg/mL | MIC 100% (S. aureus ATCC 29213; Study LGC285582): >64 µg/mL | MIC 100% (S. aureus ATCC 29213; Study LGC286210): 64 µg/mL (≈ 86.5 µM) | MIC 100% (S. aureus ATCC 29213; Study LGC293598): >64 µg/mL | MIC 100% (S. aureus ATCC 29213; Study LGC294355): >64 µg/mL | MIC 100% (S. aureus ATCC 29213; Study LGC295147): 64 µg/mL (≈ 86.5 µM) | MIC 100% (S. aureus ATCC 29213; Study LGC296813): >64 µg/mL | MIC 100% (S. aureus ATCC 29213; Study LGC299544): 64 µg/mL (≈ 86.5 µM) | MIC 100% (S. aureus ATCC 29213; Study LGC301026): >64 µg/mL | MIC 100% (S. aureus ATCC 29213; Study LGC308175): >64 µg/mL | MIC 100% (S. aureus ATCC 29213; Study ROC010): 32 µg/mL (≈ 43.3 µM) | MIC 100% (S. aureus ATCC 29213; Study ROC012): 32 µg/mL (≈ 43.3 µM) | MIC 80% (A. baumannii; ATCC 17978, Study LGC301026): 0.12 µg/mL (≈ 0.162 µM) | MIC 100% (A. baumannii; ATCC 17978, Study LGC301026): 0.12 µg/mL (≈ 0.162 µM) | MIC 80% (A. baumannii; ATCC 17978, Study LGC308175): ≤0.06 µg/mL | MIC 100% (A. baumannii; ATCC 17978, Study LGC308175): ≤0.06 µg/mL | MIC 80% (A. baumannii; ATCC 19606, Study LGC281440): 0.12 µg/mL (≈ 0.162 µM) | MIC 100% (A. baumannii; ATCC 19606, Study LGC281440): 0.12 µg/mL (≈ 0.162 µM) | MIC 80% (A. baumannii; ATCC 19606, Study LGC282160): 0.25 µg/mL (≈ 0.338 µM) | MIC 100% (A. baumannii; ATCC 19606, Study LGC282160): 0.25 µg/mL (≈ 0.338 µM) | MIC 80% (A. baumannii; ATCC 19606, Study LGC284879): 0.25 µg/mL (≈ 0.338 µM) | MIC 100% (A. baumannii; ATCC 19606, Study LGC284879): 0.25 µg/mL (≈ 0.338 µM) | MIC 80% (A. baumannii; ATCC 19606, Study LGC285582): 0.12 µg/mL (≈ 0.162 µM) | MIC 100% (A. baumannii; ATCC 19606, Study LGC285582): 0.25 µg/mL (≈ 0.338 µM) | MIC 80% (A. baumannii; ATCC 19606, Study LGC286210): 0.12 µg/mL (≈ 0.162 µM) | MIC 100% (A. baumannii; ATCC 19606, Study LGC286210): 0.12 µg/mL (≈ 0.162 µM) | MIC 80% (A. baumannii; ATCC 19606, Study LGC293598): 0.12 µg/mL (≈ 0.162 µM) | MIC 100% (A. baumannii; ATCC 19606, Study LGC293598): 0.25 µg/mL (≈ 0.338 µM) | MIC 80% (A. baumannii; ATCC 19606, Study LGC294355): 0.12 µg/mL (≈ 0.162 µM) | MIC 100% (A. baumannii; ATCC 19606, Study LGC294355): 0.12 µg/mL (≈ 0.162 µM) | MIC 80% (A. baumannii; ATCC 19606, Study LGC295147): 0.25 µg/mL (≈ 0.338 µM) | MIC 100% (A. baumannii; ATCC 19606, Study LGC295147): 0.25 µg/mL (≈ 0.338 µM) | MIC 80% (A. baumannii; ATCC 19606, Study LGC296813): 0.12 µg/mL (≈ 0.162 µM) | MIC 100% (A. baumannii; ATCC 19606, Study LGC296813): 0.25 µg/mL (≈ 0.338 µM) | MIC 80% (A. baumannii; ATCC 19606, Study LGC299544): 0.12 µg/mL (≈ 0.162 µM) | MIC 100% (A. baumannii; ATCC 19606, Study LGC299544): 0.12 µg/mL (≈ 0.162 µM) | MIC 80% (A. baumannii; ATCC 19606, Study LGC301026): 0.12 µg/mL (≈ 0.162 µM) | MIC 100% (A. baumannii; ATCC 19606, Study LGC301026): 0.25 µg/mL (≈ 0.338 µM) | MIC 80% (A. baumannii; ATCC 19606, Study LGC308175): 0.12 µg/mL (≈ 0.162 µM) | MIC 100% (A. baumannii; ATCC 19606, Study LGC308175): 0.12 µg/mL (≈ 0.162 µM) | MIC 80% (A. baumannii; ATCC 19606, Study ROC010): 0.25 µg/mL (≈ 0.338 µM) | MIC 100% (A. baumannii; ATCC 19606, Study ROC010): 0.5 µg/mL (≈ 0.676 µM) | MIC 80% (A. baumannii; ATCC 19606, Study ROC012): 0.12 µg/mL (≈ 0.162 µM) | MIC 100% (A. baumannii; ATCC 19606, Study ROC012): 0.25 µg/mL (≈ 0.338 µM) | MIC90 (A. baumannii; Acinetobacter baumannii, 10 MDR isolates, CAMHB, MCPs read at 80% growth inhibition): 0.5 µg/mL (≈ 0.676 µM) | MIC (A. baumannii; Acinetobacter baumannii, ATCC17978, ATCC 17978, CAMHB, MCPs read at 80% inhibition): 0.12 µg/mL (≈ 0.162 µM) | MIC (A. baumannii; Acinetobacter baumannii, ATCC17978, ATCC 17978, CAMHB, one replicate, MCPs read at 80% growth inhibition): ≤ 0.06 µg/mL | MIC (A. baumannii; Acinetobacter baumannii, ATCC19606, ATCC 19606, CAMHB, MCPs read at 80% growth inhibition): 0.12 µg/mL (≈ 0.162 µM) | MIC (A. baumannii; Acinetobacter baumannii, ATCC19606, ATCC 19606, CAMHB, MCPs read at 80% inhibition): 0.12 µg/mL (≈ 0.162 µM) | MIC (A. baumannii; Acinetobacter baumannii, ROB08701, CAMHB, MCPs read at 80% inhibition): 0.12 µg/mL (≈ 0.162 µM) | MIC (A. baumannii; Acinetobacter baumannii, ROB08702, CAMHB, MCPs read at 80% inhibition): 0.12 µg/mL (≈ 0.162 µM) | MIC (A. baumannii; Acinetobacter baumannii, ROB08703, CAMHB, MCPs read at 80% inhibition): 0.25 µg/mL (≈ 0.338 µM) | MIC (A. baumannii; Acinetobacter baumannii, ROB08704, CAMHB, MCPs read at 80% inhibition): 0.5 µg/mL (≈ 0.676 µM) | MIC (A. baumannii; Acinetobacter baumannii, ROB08705, CAMHB, MCPs read at 80% inhibition): ≤ 0.06 µg/mL | MIC (A. baumannii; Acinetobacter baumannii, ROB08706, CAMHB, MCPs read at 80% inhibition): 0.5 µg/mL (≈ 0.676 µM) | MIC (A. baumannii; Acinetobacter baumannii, ROB08707, CAMHB, MCPs read at 80% inhibition): 0.12 µg/mL (≈ 0.162 µM) | MIC (A. baumannii; Acinetobacter baumannii, ROB08708, CAMHB, MCPs read at 80% inhibition): 0.12 µg/mL (≈ 0.162 µM) | MIC (A. baumannii; Acinetobacter baumannii, ROB08709, CAMHB, MCPs read at 80% inhibition): 0.12 µg/mL (≈ 0.162 µM) | MIC (A. baumannii; Acinetobacter baumannii, ROB08710, CAMHB, MCPs read at 80% inhibition): 0.12 µg/mL (≈ 0.162 µM) | MIC (A. baumannii; Acinetobacter baumannii, read-out: MIC read at 80% growth inhibition, CAMHB): 2 µg/mL (≈ 2.7 µM) | MIC (A. baumannii; Acinetobacter baumannii, read-out: MIC read at 100% growth inhibition, CAMHB): > 64 µg/mL | MIC 80% (A. baumannii; ROB08701, Study LGC281440): 0.12 µg/mL (≈ 0.162 µM) | MIC 100% (A. baumannii; ROB08701, Study LGC281440): 0.25 µg/mL (≈ 0.338 µM) | MIC 80% (A. baumannii; ROB08701, Study LGC282160): 0.12 µg/mL (≈ 0.162 µM) | MIC 100% (A. baumannii; ROB08701, Study LGC282160): 1 µg/mL (≈ 1.35 µM) | MIC 80% (A. baumannii; ROB08701, Study LGC284879): 0.25 µg/mL (≈ 0.338 µM) | MIC 100% (A. baumannii; ROB08701, Study LGC284879): 0.5 µg/mL (≈ 0.676 µM) | MIC 80% (A. baumannii; ROB08701, Study LGC285582): 0.12 µg/mL (≈ 0.162 µM) | MIC 100% (A. baumannii; ROB08701, Study LGC285582): 64 µg/mL (≈ 86.5 µM) | MIC 80% (A. baumannii; ROB08701, Study LGC286210): 0.12 µg/mL (≈ 0.162 µM) | MIC 100% (A. baumannii; ROB08701, Study LGC286210): 64 µg/mL (≈ 86.5 µM) | MIC 80% (A. baumannii; ROB08701, Study LGC293598): 0.12 µg/mL (≈ 0.162 µM) | MIC 100% (A. baumannii; ROB08701, Study LGC293598): 0.25 µg/mL (≈ 0.338 µM) | MIC 80% (A. baumannii; ROB08701, Study LGC294355): 0.12 µg/mL (≈ 0.162 µM) | MIC 100% (A. baumannii; ROB08701, Study LGC294355): 0.25 µg/mL (≈ 0.338 µM) | MIC 80% (A. baumannii; ROB08701, Study LGC295147): 0.12 µg/mL (≈ 0.162 µM) | MIC 100% (A. baumannii; ROB08701, Study LGC295147): 0.12 µg/mL (≈ 0.162 µM) | MIC 80% (A. baumannii; ROB08701, Study LGC296813): 0.12 µg/mL (≈ 0.162 µM) | MIC 100% (A. baumannii; ROB08701, Study LGC296813): 0.25 µg/mL (≈ 0.338 µM) | MIC 80% (A. baumannii; ROB08701, Study LGC299544): 0.12 µg/mL (≈ 0.162 µM) | MIC 100% (A. baumannii; ROB08701, Study LGC299544): 64 µg/mL (≈ 86.5 µM) | MIC 80% (A. baumannii; ROB08701, Study LGC301026): 0.5 µg/mL (≈ 0.676 µM) | MIC 100% (A. baumannii; ROB08701, Study LGC301026): 64 µg/mL (≈ 86.5 µM) | MIC 80% (A. baumannii; ROB08701, Study LGC308175): 0.12 µg/mL (≈ 0.162 µM) | MIC 100% (A. baumannii; ROB08701, Study LGC308175): 64 µg/mL (≈ 86.5 µM) | MIC 80% (A. baumannii; ROB08701, Study ROC010): 0.25 µg/mL (≈ 0.338 µM) | MIC 100% (A. baumannii; ROB08701, Study ROC010): 0.5 µg/mL (≈ 0.676 µM)
